Measurements from patent US9873880B2, “Engineering microorganisms” (DSM NUTRITIONAL PRODUCTS AG, priority 2013, dated 2018).

What was measured:
[1] = tested on: Thraustochytrium sp. ONC-T18; assay: Effects of zeocin and salinity on colony numbers and colony diameters of ONC-T18; format: cell-based; conditions: for colony numbers: 10 days; for colony numbers / colony growth rates (diameter in mm): mean of two plates
Protocol: One hundred μL of ONC-T18 cell suspension diluted at 1:500 from a 2-day culture were spread onto ONC-T18-GM0 plates containing various concentrations of antibiotic zeocin and sea salt. Inoculated plates were incubated in a 25° C. incubator for 10 days. The numbers of the colonies on each plate were counted. […] In plates containing 8.5 g/L sea salt without zeocin, only one colony was observed. In plates containing 18 g/L sea salt without zeocin, colony numbers were similar to that of plates containing 35 g/L sea salt without zeocin. […] Therefore, for this work, 18 g/L sea salt was used to make ONC-T18-GM0 for selection of ONC-T18 transformants transformed with constructs bearing a zeocin-resistant gene expression cassette.

[2] = tested on: transformed strains bearing the zeocin-resistance gene (from S. hidustanus) expression cassette; assay: Zeocin sensitivity of transformed strains, spotted colonies; format: cell-based, Thraustochytrium sp. ONC-T18; conditions: 18 g/L sea salt
Protocol: (§1) A very small amount of inoculum of zeocin-resistant strains that had been transferred three times via colony passages on zeocin/ONC-T18-GM0 agar plates (as well as their parental strain or the wild type strain) was picked from colonies using a 10 μL pipette tip and re-suspended in 50 μL sterilized water in a 200 μL PCR tube. One μL of the cell suspension was spotted on ONC-T18-GM0 agar plates containing 18 g/L sea salt (15 g/L agar) and zeocin at a concentration ranging from 0 to 5000 μg/mL (Invitrogen, CA, USA). The diameters of the spotted colonies were measured on day 1, day 3, day 5, day 7, and day 8.

[3] = cited from earlier work
[4] = tested on: parental strain (the wild type strain) ONC-T18; assay: Zeocin sensitivity of the parental (wild type) strain, spotted colonies; format: cell-based, Thraustochytrium sp. ONC-T18; conditions: ONC-T18-GM0 agar plates, 18 g/L sea salt, spotted cells
Protocol: as §1

[5] = tested on: Thraustochytrium sp. ONC-T18; assay: Effects of antibiotics on the growth of ONC-T18 on ONC-T18-GM0 agar plates; format: cell-based
Protocol: Thraustochytrium sp. ONC-T18 was grown on agar plates (20 g agar per liter ONC-T18-GM0). One loop of inoculum of ONC-T18 was inoculated into 50 mL of liquid ONC-T18-GM0, and the culture was incubated in a shaker incubator at 25° C. at 250 rpm for 36 hours. Half a milliliter of the culture was transferred into a 1.5 mL tube and vortexed at full speed for 30 seconds to break down cell clusters, then diluted in 50 mL sterilized water. One hundred microliters of the resulting solution was spread onto each ONC-T18-GM0 medium plate. Each plate contained one of various antibiotics at one of various concentrations. Plates were incubated at 25° C. and emergence and development of colonies were observed daily.

[6] = tested on: wild type strain of ONC-T18; assay: Zeocin as mutagenic agent on ONC-T18 agar plates; format: cell-based, Thraustochytrium sp. ONC-T18
Protocol: The marine protist wild type strain of ONC-T18 was chosen as a model system to test if zeocin would be effective to induce mutagenesis in this strain. One full loop of the inocula of ONC-T18, growing in the agar plates containing ONC-T18-GM0 medium [5 g/L yeast extract, 5 g/L peptone, 10 g/L D(+)-glucose. 35 g/L artificial sea salt, 1.25 mg/L trace elements (5 g/L NaH2PO4.H2O, 3.15 g/L FeCl3.6H2O, 4.36 g/L Na2EDTA.2H2O, 0.6125 mg/L CuSO4.5H2O, 0.0597 g/L Na2MoO4.2H2O, 0.022 g/L ZnSO4.7H2O, 0.01 g/L CoCl2.6H2O, 0.18 g/L MnCl2.4H2O, 13 μg/L […], 2.7 mg/L NiSO4.6H2O, 1.84 mg/L Na3VO4 and 1.94 mg/L […]). 1.25 mg/L vitamins (1 mg/L vitamin B12, 1 mg/L biotin, 0.20 g/L thiamine HCl) and 20 g agar per liter], was inoculated into 50 mL liquid ONC-T18-GM0 medium, and incubated in a shaker incubator at 25° C. at 250 rpm for 36 hours. Half a milliliter of culture was transferred into a 1.5 mL tube and vortexed at full speed for 30 seconds, and then diluted in 50 mL sterilized water. One hundred microliters of the diluted inocula were respectively spread on the agar plates containing zeocin at various concentrations (0, 10, 30, 50, and 100 μg/mL). Plates were incubated at 25° C. incubator. The emergence and development of the colonies were observed daily. […] Under these conditions, zeocin was effective within the range of at least 10-200 μg/mL; higher concentrations may well also be effective. For example, concentrations in the range of 200-500 μg/mL or higher could work. […] Under the particular conditions utilized in the present Example, zeocin worked best at 50 μg/mL.

[7] = tested on: wild type strains ONC-T18; assay: Transgene stability assay, growth on zeocin plates after six colony passages; format: cell-based, Thraustochytrium sp. ONC-T18; conditions: zeocin 200 μg/mL media
From the text: Transgene stability is important for certain applications of genetic engineering in industrial microbial strain improvement programs where microorganisms are used in pharmaceutical or industrial processes, and where product quantity and quality are paramount. We therefore carried out transgene stability estimate assays of transformed ONC-T18 strains. As for the growth rate assays described in above, inocula of four strains of each transformation as well as their ancestor wild type strains were spotted on ONC-T18-GM0 agar plates in the absence of zeocin and incubated at 25° C. for seven days. (Each transformation had been performed using one of the five different plasmid constructs, each of which bears various zeocin-resistant gene expression cassettes driven by a combination of different promoters and terminators). Then, using the same method, strains were transferred on a new fresh ONC-T18-GM0 agar plate and incubated at 25° C. for 7 days; colony passages were carried out 6 times. Finally, strains were transferred back onto ONC-T18-GM0 agar plates either without or with zeocin at a concentration of 200 μg/mL media.

[8] = agar plates, ONC-T18-GM0, 35 g/L artificial sea salt

Question: What does the source list for `Cc1c(N)nc([C@H](CC(N)=O)NC[C@H](N)C(N)=O)nc1C(=O)N[C@H](C(=O)N[C@H](C)[C@@H](O)[C@H](C)C(=O)N[C@H](C(=O)NCCC1=N[C@@H](c2nc(C(=O)NCCCCN=C(N)N)cs2)CS1)[C@@H](C)O)[C@@H](O[C@@H]1O[C@@H](CO)[C@@H](O)[C@H](O)[C@@H]1O[C@H]1O[C@H](CO)[C@@H](O)[C@H](OC(N)=O)[C@@H]1O)c1cnc[nH]1` [Zeocin, zeocin]?
Answer: zeocin concentration that completely inhibited growth of ONC-T18 ([1]; ONC-T18-GM0 agar plates containing 18 g/L sea salt): 30 µg/mL; zeocin concentration needed for complete inhibition of ONC-T18 ([1]; ONC-T18-GM0 agar plates containing 35 g/L sea salt): 100 µg/mL; colony numbers ([1]; salt 5 g/L, zeocin 10 μg/mL): 0; colony growth rates (diameter in mm) ([1]; salt 5 g/L, zeocin 10 μg/mL): 0 mm; colony numbers ([1]; salt 5 g/L, zeocin 30 μg/mL): 0; colony growth rates (diameter in mm) ([1]; salt 5 g/L, zeocin 30 μg/mL): 0 mm; colony numbers ([1]; salt 5 g/L, zeocin 50 μg/mL): 0; colony growth rates (diameter in mm) ([1]; salt 5 g/L, zeocin 50 μg/mL): 0 mm; colony numbers ([1]; salt 5 g/L, zeocin 100 μg/mL): 0; colony growth rates (diameter in mm) ([1]; salt 5 g/L, zeocin 100 μg/mL): 0 mm; colony numbers ([1]; salt 8.5 g/L, zeocin 10 μg/mL): 0; colony growth rates (diameter in mm) ([1]; salt 8.5 g/L, zeocin 10 μg/mL): 0 mm; colony numbers ([1]; salt 8.5 g/L, zeocin 30 μg/mL): 0; colony growth rates (diameter in mm) ([1]; salt 8.5 g/L, zeocin 30 μg/mL): 0 mm; colony numbers ([1]; salt 8.5 g/L, zeocin 50 μg/mL): 0; colony growth rates (diameter in mm) ([1]; salt 8.5 g/L, zeocin 50 μg/mL): 0 mm; colony numbers ([1]; salt 8.5 g/L, zeocin 100 μg/mL): 0; colony growth rates (diameter in mm) ([1]; salt 8.5 g/L, zeocin 100 μg/mL): 0 mm; colony numbers ([1]; salt 18 g/L, zeocin 10 μg/mL): 11; colony growth rates (diameter in mm) ([1]; salt 18 g/L, zeocin 10 μg/mL): 4.1 mm; colony numbers ([1]; salt 18 g/L, zeocin 30 μg/mL): 0; colony growth rates (diameter in mm) ([1]; salt 18 g/L, zeocin 30 μg/mL): 0 mm; colony numbers ([1]; salt 18 g/L, zeocin 50 μg/mL): 0; colony growth rates (diameter in mm) ([1]; salt 18 g/L, zeocin 50 μg/mL): 0 mm; colony numbers ([1]; salt 18 g/L, zeocin 100 μg/mL): 0; colony growth rates (diameter in mm) ([1]; salt 18 g/L, zeocin 100 μg/mL): 0 mm; colony numbers ([1]; salt 35 g/L, zeocin 10 μg/mL): 22.5; colony growth rates (diameter in mm) ([1]; salt 35 g/L, zeocin 10 μg/mL): 4.1 mm; colony numbers ([1]; salt 35 g/L, zeocin 30 μg/mL): 11; colony growth rates (diameter in mm) ([1]; salt 35 g/L, zeocin 30 μg/mL): 1.9 mm; colony numbers ([1]; salt 35 g/L, zeocin 50 μg/mL): 5; colony growth rates (diameter in mm) ([1]; salt 35 g/L, zeocin 50 μg/mL): 0.6 mm; colony numbers ([1]; salt 35 g/L, zeocin 100 μg/mL): 0; colony growth rates (diameter in mm) ([1]; salt 35 g/L, zeocin 100 μg/mL): 0 mm; growth of transformed strains ([2]; zeocin 5000 μg/mL): most strains grew remarkably slower; growth of transformed strains ([2]; zeocin 30 to 1000 μg/mL): grew well; stability at high salt concentrations ([3]; Invitrogen): unstable; water solubility ([3]; InvivoGen): water soluble; zeocin concentration on which the wild type strain grew [4]: ≤ 30 µg/mL; effect on growth of ONC-T18 (in words) [5]: significantly inhibited the growth; concentration at which zeocin worked best as mutagen [6, 8]: 50 µg/mL; concentration range in which zeocin was effective as mutagen [6, 8]: 10 to 200 µg/mL; colonies seen per plate ([6]; zeocin 50 μg/mL, six days post inoculation): Only a few of colonies; sensitivity of ONC-T18 cells to zeocin ([6]; zeocin 100 μg/mL): highly sensitive; growth of wild type strains [7]: none of the wild type strains were able to grow
